Several values for one entry are separate records, joined by “and”; a condition that tells them apart may be missing. Equal entries are not always repeated. ± gives the expanded uncertainty stated by the source.
Columns and labels:
[1] = for thermal pressure coefficient: barogram technique
[2] = molar heat capacity at constant volume; conditions: High-temperature High-pressure adiabatci calorimeter

CCOCC [diethyl ether]
Conditions	Critical density, [1] [kg/m3]	Critical temperature, [1] [K]	molar heat capacity at constant volume, [2]	thermal pressure coefficient, [1]	vapor or sublimation pressure, [1]
416.1 K, Liquid	–	–	156.77 ± 4.7 J/K/mol	272 ± 4.1 kPa/K	1599 ± 48 kPa
425.19 K, Liquid	–	–	159.36 ± 4.8 J/K/mol	238 ± 3.6 kPa/K	1906 ± 57 kPa
437.14 K, Liquid	–	–	163.81 ± 4.9 J/K/mol	198 ± 3 kPa/K	2280 ± 68 kPa
450.6 K, Liquid	–	–	170.26 ± 5.1 J/K/mol	148 ± 2.2 kPa/K	2931 ± 88 kPa
450.77 K, Liquid	–	–	171.96 ± 5.2 J/K/mol	148 ± 2.2 kPa/K	2933 ± 88 kPa
459.61 K, Liquid	–	–	178.63 ± 5.3 J/K/mol	106 ± 1.6 kPa/K	3315 ± 99 kPa
464.79 K, Liquid	–	–	190.49 ± 5.7 J/K/mol	81.8 ± 1.2 kPa/K	3580 ± 110 kPa
466.12 K, Gas	–	–	190.12 ± 5.7 J/K/mol	52.3 ± 0.8 kPa/K	–
466.47 K, Liquid	–	–	203.83 ± 6.2 J/K/mol	68 ± 1 kPa/K	3612 ± 110 kPa
466.66 K, Gas	–	–	208.5 ± 6.3 J/K/mol	54.3 ± 0.8 kPa/K	–
466.75 K, Liquid	–	–	210.65 ± 6.3 J/K/mol	64.5 ± 1 kPa/K	3601 ± 110 kPa
466.8 K, Liquid	–	–	218.66 ± 6.6 J/K/mol	61 ± 1 kPa/K	3583 ± 110 kPa
466.81 K, Liquid	–	–	233.48 ± 7.1 J/K/mol and 245.64 ± 7.6 J/K/mol	59.7 kPa/K and 59.2 kPa/K	3608 ± 110 kPa and 3576 ± 110 kPa
466.82 K, Gas	–	–	234.97 ± 7.4 J/K/mol	55.9 ± 0.9 kPa/K	–
466.83 K, Gas	–	–	248.6 ± 8.2 J/K/mol	56.1 ± 0.9 kPa/K	–
466.85 K, Gas	–	–	264.24 ± 9.1 J/K/mol	55.9 ± 0.9 kPa/K	–
Liquid, quasi-satatic thermogram technique	265.1 ± 2	–	–	–	–
Liquid, quasi-static thermogram technique	–	466.85 ± 0.2	–	–	–

[1]
Conditions	mass density
416.1 K, Liquid, Constant volume piezo-calorimeter	534.6 ± 0.3 kg/m3
425.19 K, Liquid, Constant volume piezo-calorimeter	517.3 ± 0.3 kg/m3
437.14 K, Liquid, Constant volume piezo-calorimeter	485.2 ± 0.3 kg/m3
450.6 K, Liquid, Constant volume piezo-calorimeter	441.5 ± 0.2 kg/m3
450.77 K, Liquid, Constant volume piezo-calorimeter	440.8 ± 0.2 kg/m3
459.61 K, Liquid, Constant volume piezo-calorimeter	394.8 ± 0.2 kg/m3
464.79 K, Liquid, Constant volume piezo-calorimeter	348.2 ± 0.3 kg/m3
466.12 K, Gas, constant volume piezo-calorimeter	212.6 ± 0.6 kg/m3
466.47 K, Liquid, Constant volume piezo-calorimeter	310.8 ± 0.8 kg/m3
466.66 K, Gas, constant volume piezo-calorimeter	233.7 ± 0.8 kg/m3
466.75 K, Liquid, Constant volume piezo-calorimeter	296.7 ± 0.8 kg/m3
466.8 K, Liquid, Constant volume piezo-calorimeter	288.3 ± 1.1 kg/m3
466.81 K, Liquid, Constant volume piezo-calorimeter	278.7 ± 1.5 kg/m3 and 275.7 ± 1.6 kg/m3
466.82 K, Gas, constant volume piezo-calorimeter	255 ± 1.9 kg/m3
466.83 K, Gas, constant volume piezo-calorimeter	260.7 ± 2.3 kg/m3
466.85 K, Gas, constant volume piezo-calorimeter	261.2 ± 2.2 kg/m3

From the NIST ThermoML archive (doi:10.1007/s10765-011-0948-4)
